Measurements: paper PMC6658524, “Lysosomal degradation of newly formed insulin granules contributes to β cell failure in diabetes” (Nature Communications, 2019)

Legend:
[1] = target: Flt3(h) (Homo sapiens, UniProt P36888); experiment: biochemical; design: Eurofins KinaseProfiler panel of 60 kinases, per cent inhibition
Description: (§1) A more detailed account of the discovery, chemistry and biochemical properties of this novel class of selective p38δ inhibitors will be given elsewhere.

[2] = target: T1, PI3 Kinase (p110α/p85α)(h) (Homo sapiens, UniProt P42336); experiment: biochemical; design: Eurofins KinaseProfiler panel of 60 kinases, per cent inhibition
T1 construct: gene PIK3CA; p110α/p85α
Description: as §1

[3] = target: FGFR1(h) (Homo sapiens, UniProt P11362); experiment: biochemical; design: Eurofins KinaseProfiler panel of 60 kinases, per cent inhibition
Description: as §1

[4] = target: CDK1/cyclinB(h) (Homo sapiens, UniProt P06493); experiment: biochemical; design: Eurofins KinaseProfiler panel of 60 kinases, per cent inhibition
Description: as §1

[5] = target: JAK3(h) (Homo sapiens, UniProt P52333); experiment: biochemical; design: Eurofins KinaseProfiler panel of 60 kinases, per cent inhibition
Description: as §1

[6] = target: T2, SAPK3(h) (Homo sapiens, UniProt P53778); experiment: biochemical; design: Eurofins KinaseProfiler panel of 60 kinases, per cent inhibition
T2 construct: gene MAPK12
Description: as §1

[7] = target: T3, Abl(h) (Homo sapiens, UniProt P00519); experiment: biochemical; design: Eurofins KinaseProfiler panel of 60 kinases, per cent inhibition
T3 construct: gene ABL1
Description: as §1

[8] = target: DDR2(h) (Homo sapiens, UniProt Q16832); experiment: biochemical; design: Eurofins KinaseProfiler panel of 60 kinases, per cent inhibition
Description: as §1

[9] = target: T4, MST2(h) (Homo sapiens, UniProt Q13188); experiment: biochemical; design: Eurofins KinaseProfiler panel of 60 kinases, per cent inhibition
T4 construct: gene STK3
Description: as §1

[10] = target: Flt1(h) (Homo sapiens, UniProt P17948); experiment: biochemical; design: Eurofins KinaseProfiler panel of 60 kinases, per cent inhibition
Description: as §1

[11] = target: CDK9/cyclin T1(h) (Homo sapiens, UniProt P50750); experiment: biochemical; design: Eurofins KinaseProfiler panel of 60 kinases, per cent inhibition
Description: as §1

[12] = target: T5, p70S6K(h) (Homo sapiens, UniProt P23443); experiment: biochemical; design: Eurofins KinaseProfiler panel of 60 kinases, per cent inhibition
T5 construct: gene RPS6KB1
Description: as §1

[13] = target: T6, cSRC(h) (Homo sapiens, UniProt P12931); experiment: biochemical; design: Eurofins KinaseProfiler panel of 60 kinases, per cent inhibition
T6 construct: gene SRC
Description: as §1

[14] = target: T7, PEK(h) (Homo sapiens, UniProt Q9NZJ5); experiment: biochemical; design: Eurofins KinaseProfiler panel of 60 kinases, per cent inhibition
T7 construct: gene EIF2AK3
Description: as §1

[15] = target: T8, GSK3α(h) (Homo sapiens, UniProt P49840); experiment: biochemical; design: Eurofins KinaseProfiler panel of 60 kinases, per cent inhibition
T8 construct: gene GSK3A
Description: as §1

[16] = target: T9, p38γ (SAPK3) (Homo sapiens, UniProt P53778); experiment: biochemical; design: Kinase inhibition by mobility shift assay (Caliper)
T9 construct: gene MAPK12

[17] = target: T10, p70S6K (Homo sapiens, UniProt P23443); experiment: 60-kinase selectivity panel, % inhibition at […]; format: biochemical
T10 construct: gene RPS6KB1

[18] = target: mTOR (Homo sapiens, UniProt P42345); experiment: 60-kinase selectivity panel, % inhibition at […]; format: biochemical

T8 sequence (P49840 whole entry): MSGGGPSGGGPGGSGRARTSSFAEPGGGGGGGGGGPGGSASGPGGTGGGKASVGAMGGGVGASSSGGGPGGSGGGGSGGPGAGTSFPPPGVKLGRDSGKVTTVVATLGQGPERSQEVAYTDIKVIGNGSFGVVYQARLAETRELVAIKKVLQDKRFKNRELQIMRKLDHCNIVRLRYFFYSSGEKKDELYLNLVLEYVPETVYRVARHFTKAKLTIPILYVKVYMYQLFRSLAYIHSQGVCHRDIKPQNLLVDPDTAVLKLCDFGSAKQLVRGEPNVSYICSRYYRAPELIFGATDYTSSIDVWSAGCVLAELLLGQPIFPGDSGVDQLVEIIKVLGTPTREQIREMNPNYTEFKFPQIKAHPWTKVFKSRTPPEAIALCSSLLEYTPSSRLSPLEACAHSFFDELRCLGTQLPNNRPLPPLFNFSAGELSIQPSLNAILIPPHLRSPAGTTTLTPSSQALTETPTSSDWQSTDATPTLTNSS
T4 sequence (Q13188 whole entry): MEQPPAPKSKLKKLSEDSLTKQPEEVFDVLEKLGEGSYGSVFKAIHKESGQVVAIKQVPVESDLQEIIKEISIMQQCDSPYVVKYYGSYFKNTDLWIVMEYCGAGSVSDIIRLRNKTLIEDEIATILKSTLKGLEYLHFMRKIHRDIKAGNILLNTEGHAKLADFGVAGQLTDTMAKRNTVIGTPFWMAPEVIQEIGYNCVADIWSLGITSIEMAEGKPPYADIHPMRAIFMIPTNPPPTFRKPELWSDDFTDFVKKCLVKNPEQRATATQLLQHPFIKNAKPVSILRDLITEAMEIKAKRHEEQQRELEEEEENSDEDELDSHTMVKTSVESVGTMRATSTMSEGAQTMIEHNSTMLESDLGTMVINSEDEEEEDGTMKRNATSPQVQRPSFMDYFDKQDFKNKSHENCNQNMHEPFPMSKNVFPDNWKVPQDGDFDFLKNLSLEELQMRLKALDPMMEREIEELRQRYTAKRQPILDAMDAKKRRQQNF
T3 sequence (P00519 whole entry): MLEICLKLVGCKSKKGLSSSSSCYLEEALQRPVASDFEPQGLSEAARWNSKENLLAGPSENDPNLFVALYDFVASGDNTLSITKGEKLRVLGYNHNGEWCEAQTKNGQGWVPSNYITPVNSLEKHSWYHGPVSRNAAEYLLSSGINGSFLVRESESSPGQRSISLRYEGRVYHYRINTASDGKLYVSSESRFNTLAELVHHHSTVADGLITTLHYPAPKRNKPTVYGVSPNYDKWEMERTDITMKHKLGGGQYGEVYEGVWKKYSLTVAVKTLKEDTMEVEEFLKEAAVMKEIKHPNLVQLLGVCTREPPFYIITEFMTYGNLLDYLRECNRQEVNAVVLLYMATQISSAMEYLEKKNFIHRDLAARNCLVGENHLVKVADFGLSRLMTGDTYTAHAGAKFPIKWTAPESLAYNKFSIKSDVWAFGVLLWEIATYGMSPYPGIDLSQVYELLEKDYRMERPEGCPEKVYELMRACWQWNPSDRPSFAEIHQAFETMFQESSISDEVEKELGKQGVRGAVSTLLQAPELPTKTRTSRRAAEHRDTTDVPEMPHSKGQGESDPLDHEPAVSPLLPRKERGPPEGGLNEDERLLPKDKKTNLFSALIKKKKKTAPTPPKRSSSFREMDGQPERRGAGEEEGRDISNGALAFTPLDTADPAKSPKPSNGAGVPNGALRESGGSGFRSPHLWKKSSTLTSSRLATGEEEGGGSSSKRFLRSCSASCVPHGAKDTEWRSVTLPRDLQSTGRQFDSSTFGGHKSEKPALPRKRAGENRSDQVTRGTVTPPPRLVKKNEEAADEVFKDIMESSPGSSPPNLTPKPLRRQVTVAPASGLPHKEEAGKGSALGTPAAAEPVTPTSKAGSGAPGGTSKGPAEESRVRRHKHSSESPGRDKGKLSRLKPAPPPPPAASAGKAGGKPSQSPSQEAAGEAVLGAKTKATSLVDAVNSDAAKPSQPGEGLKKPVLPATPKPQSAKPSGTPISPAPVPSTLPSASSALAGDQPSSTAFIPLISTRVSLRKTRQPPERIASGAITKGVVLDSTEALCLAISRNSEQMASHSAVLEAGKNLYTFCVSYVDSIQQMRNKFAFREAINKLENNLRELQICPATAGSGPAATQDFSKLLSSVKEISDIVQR
T7 sequence (Q9NZJ5 whole entry): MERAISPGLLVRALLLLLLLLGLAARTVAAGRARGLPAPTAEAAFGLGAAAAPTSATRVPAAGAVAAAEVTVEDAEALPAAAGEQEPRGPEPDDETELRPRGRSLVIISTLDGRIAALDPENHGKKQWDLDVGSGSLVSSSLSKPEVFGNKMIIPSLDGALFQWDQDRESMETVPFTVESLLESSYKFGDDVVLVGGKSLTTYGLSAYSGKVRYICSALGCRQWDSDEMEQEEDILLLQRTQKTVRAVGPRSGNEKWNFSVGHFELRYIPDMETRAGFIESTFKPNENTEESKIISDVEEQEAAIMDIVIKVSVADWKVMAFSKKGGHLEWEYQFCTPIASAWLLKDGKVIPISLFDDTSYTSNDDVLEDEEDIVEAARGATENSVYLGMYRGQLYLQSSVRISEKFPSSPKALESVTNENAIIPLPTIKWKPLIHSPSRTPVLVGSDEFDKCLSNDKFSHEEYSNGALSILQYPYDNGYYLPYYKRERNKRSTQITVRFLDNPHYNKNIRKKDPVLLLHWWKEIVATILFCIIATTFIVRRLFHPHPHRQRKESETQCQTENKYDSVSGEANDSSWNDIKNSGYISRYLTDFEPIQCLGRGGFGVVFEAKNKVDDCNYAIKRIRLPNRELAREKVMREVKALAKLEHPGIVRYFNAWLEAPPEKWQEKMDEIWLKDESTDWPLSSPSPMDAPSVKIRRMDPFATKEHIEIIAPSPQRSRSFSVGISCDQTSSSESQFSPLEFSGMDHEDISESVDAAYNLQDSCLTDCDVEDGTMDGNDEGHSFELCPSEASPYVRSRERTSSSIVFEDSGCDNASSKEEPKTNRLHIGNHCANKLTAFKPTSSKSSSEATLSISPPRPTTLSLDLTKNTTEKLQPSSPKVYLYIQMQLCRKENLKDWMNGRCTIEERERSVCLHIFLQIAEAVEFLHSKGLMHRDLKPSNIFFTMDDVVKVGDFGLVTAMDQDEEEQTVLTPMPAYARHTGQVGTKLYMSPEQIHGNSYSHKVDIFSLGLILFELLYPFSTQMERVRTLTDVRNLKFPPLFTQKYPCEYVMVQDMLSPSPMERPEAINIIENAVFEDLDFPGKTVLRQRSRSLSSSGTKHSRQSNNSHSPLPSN
Chain of DDR2(h) (Q16832 whole entry): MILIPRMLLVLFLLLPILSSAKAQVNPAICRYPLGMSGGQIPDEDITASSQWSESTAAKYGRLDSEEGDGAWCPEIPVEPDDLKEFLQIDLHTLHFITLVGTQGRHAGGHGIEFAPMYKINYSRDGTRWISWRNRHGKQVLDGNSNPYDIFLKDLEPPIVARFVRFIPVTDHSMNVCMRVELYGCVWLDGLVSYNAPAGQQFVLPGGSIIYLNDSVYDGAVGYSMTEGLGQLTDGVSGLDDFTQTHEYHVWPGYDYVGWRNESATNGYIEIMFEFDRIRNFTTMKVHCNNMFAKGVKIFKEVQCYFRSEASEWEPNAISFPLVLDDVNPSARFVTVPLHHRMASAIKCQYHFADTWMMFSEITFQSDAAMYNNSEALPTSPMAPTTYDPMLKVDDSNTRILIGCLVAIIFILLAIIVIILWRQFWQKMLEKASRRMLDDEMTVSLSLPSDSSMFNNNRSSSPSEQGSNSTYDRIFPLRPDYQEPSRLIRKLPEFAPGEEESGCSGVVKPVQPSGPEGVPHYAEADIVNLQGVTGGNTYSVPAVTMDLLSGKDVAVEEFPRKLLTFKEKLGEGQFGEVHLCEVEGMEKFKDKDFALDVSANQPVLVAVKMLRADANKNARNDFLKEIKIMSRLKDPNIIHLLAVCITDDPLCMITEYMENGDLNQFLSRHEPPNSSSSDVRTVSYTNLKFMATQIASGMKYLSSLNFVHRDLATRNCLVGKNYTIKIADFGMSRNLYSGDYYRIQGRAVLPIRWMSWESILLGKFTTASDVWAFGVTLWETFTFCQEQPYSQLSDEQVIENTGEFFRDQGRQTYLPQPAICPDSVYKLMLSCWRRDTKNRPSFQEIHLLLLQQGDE
Chain of FGFR1(h) (P11362 whole entry): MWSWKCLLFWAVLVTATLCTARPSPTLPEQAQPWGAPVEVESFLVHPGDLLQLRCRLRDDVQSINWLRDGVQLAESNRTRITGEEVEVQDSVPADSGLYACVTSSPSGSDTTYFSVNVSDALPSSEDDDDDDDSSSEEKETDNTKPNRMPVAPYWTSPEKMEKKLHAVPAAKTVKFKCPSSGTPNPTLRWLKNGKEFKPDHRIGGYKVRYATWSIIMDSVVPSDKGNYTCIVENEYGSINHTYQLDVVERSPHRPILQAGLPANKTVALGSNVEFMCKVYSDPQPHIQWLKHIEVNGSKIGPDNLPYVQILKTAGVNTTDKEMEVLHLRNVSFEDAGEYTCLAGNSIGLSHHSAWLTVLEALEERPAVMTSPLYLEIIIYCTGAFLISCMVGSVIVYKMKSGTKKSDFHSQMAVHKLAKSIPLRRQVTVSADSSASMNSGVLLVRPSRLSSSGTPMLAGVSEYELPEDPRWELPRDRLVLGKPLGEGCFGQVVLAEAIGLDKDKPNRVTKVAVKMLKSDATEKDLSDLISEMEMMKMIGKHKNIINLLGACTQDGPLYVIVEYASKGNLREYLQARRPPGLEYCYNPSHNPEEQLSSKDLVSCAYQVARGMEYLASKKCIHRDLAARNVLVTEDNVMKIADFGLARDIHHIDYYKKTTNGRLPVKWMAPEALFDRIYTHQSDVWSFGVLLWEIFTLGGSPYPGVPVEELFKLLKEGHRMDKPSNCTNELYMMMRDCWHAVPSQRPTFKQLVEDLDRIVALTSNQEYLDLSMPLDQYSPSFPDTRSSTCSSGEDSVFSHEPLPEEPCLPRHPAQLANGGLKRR

`CCN1CCOc2nc(N3CCOCC3)nc(-c3ccc(NC(=O)OC)cc3)c2C1=O` [Compound A] showed an inhibition at 1 µM [1] of -30%, an inhibition at 10 µM [1] of -25% and an inhibition at 1 µM [2] of -1%. For the same molecule, the inhibition at 10 µM [2] was 2%, the inhibition at 1 µM [3] was 9% and the inhibition at 10 µM [3] was 6%. For the same molecule, the inhibition at 1 µM [4] was -5%, the inhibition at 10 µM [4] was 4% and the inhibition at 1 µM [5] was 0%. For the same molecule, the inhibition at 10 µM [5] was -5%, the inhibition at 1 µM [6] was 11% and the inhibition at 1 µM [7] was 6%. It also gave an inhibition at 10 µM [7] of 8%, an inhibition at 1 µM [8] of 6% and an inhibition at 10 µM [8] of 15%. It also gave an inhibition at 1 µM [9] of -16%, an inhibition at 10 µM [9] of -2% and an inhibition at 1 µM [10] of -30%. It also gave an inhibition at 10 µM [10] of -28%, an inhibition at 1 µM [11] of -16% and an inhibition at 10 µM [11] of 3%. For the same molecule, the inhibition at 1 µM [12] was 15%, the inhibition at 1 µM [13] was -9% and the inhibition at 10 µM [13] was -12%. It also gave an inhibition at 1 µM [14] of -12%, an inhibition at 10 µM [14] of -11% and an inhibition at 1 µM [15] of -9%. The inhibition at 10 µM [15] was -7%, the IC50 [16] was 710 nM and the “% inhibition at 10 μM” value [17] was 59. The “% inhibition at 10 μM” value [18] was 48.
